Data published in patent US8906897B2, “Antimicrobial agents based on hemin derivatives” (Obschestvo S Ogranichennoi Otvetstvennostiyu …, priority 2009, dated 2014).

What was measured:
[1] = test system: Cryptococcus neoformans No. 3465; assay: Antifungal activity, culture growth with pH indicator; type: cell-based; design: key: (−) No growth; the indicator is blue; (±) Weak growth; the indicator is yellow, but the precipitate of grown cells looks as a diffuse spot; (+) Strong growth; the indicator is yellow, and the cell precipitate looks as a compact spot
Experimental: The subjects of action were Cryptococcus neoformans No. 3465 museum strain cells and Candida albicans No. 927 museum strain cells grown for one day on a glucose-peptone-yeast medium at 32° C. The reference compounds were the following antimycotics: pimafucin, amphotericin, and fluconazole.
Experiments were carried out on round-bottomed 96-well plates (Lenmedpolimer) in two replicas. To the first column (0), added was 10 μL of the stock solution of a water-soluble agent with concentrations of 10^−2 to 10^−3 mol/L; to the second column, added was also the same 10 μL plus 10 μL of the solvent corresponding to the given compound, suspended, 10 μL was transferred to the next well, and so on to the 8th well of the row. Stock solutions of water-insoluble compounds of general formula (I) (compounds V, VIII, XII, XIII, XIV, and hemin) were prepared in DMSO and were diluted with DMSO and the medium. DMSO concentrations in the reaction mixture in a well were ≦5%.
Then, to every well added was 190 μL of a Cr. neoformans cell culture suspension in a synthetic nutritional medium (so that the final cell concentration was approximately 10^3 CFU/mL), this medium containing Bromocresol Blue as a pH-indicator (pH: 5.5; indicator color: blue). As pH reduced to 4.5, the indicator in the culture changed its color to yellow, thereby indicating fungal cell growth. The synthetic medium comprised the following components: salts, amino acids, microelements, vitamins, an antibiotic, and glucose (30 components altogether) [Yarrow, D., “Methods for the Isolation, Maintenance and Identification of Yeasts,” in: The Yeasts. A Taxonomic Study, Ed. by Kurtsman, C. P, and Fell, M., Elsevier, 1998, pp. 77-100]. After being inoculated with a Cr. neoformans cell suspension, the plate was incubated at 32° C. for 1 h with stirring, then transferred to a stationary thermostat and incubated for two and five days at 27° C. After being inoculated with a C. albicans cell suspension, the plates were incubated for 1 h at 32° C. with stirring, then transferred to a stationary thermostat and incubated for one and four days at 27° C.

human leukocytes = assay: Cytotoxic activity against human leukocytes; conditions: for toxic effect on human blood leukocytes (in words): concentrations of up to 1 mM, 3 h
Procedure, shortened: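 Human leukocytes from a healthy donor, isolated by sedimentation and adjusted to (1.0±0.1)×10^6 cells/mL in RPMI-1640 with 8% FBS, exposed 3 h at 37 °C to twofold dilutions (ranges up to 100, 500 or 1000 μM depending on compound). Dead fraction scored by propidium iodide/Hoechst 33342 fluorescence microscopy.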

[2] = dilution : 16 of 5.00 × 10^−5 M
[3] = dilution : 32 of 5.00 × 10^−5 M
[4] = dilution : 64 of 5.00 × 10^−5 M
[5] = dilution : 128 of 5.00 × 10^−5 M

SMILES	Test culture growth at various dilutions of the agent on day 2 ([1]; dilution 0: 5.00 × 10^−5 M)	Test culture growth at various dilutions of the agent on day 2 ([1]; dilution : 2 of 5.00 × 10^−5 M)	Test culture growth at various dilutions of the agent on day 2 ([1]; dilution : 4 of 5.00 × 10^−5 M)	Test culture growth at various dilutions of the agent on day 2 ([1]; dilution : 8 of 5.00 × 10^−5 M)	Test culture growth at various dilutions of the agent on day 2 [1, 2]	Test culture growth at various dilutions of the agent on day 2 [1, 3]	Test culture growth at various dilutions of the agent on day 2 [1, 4]	Test culture growth at various dilutions of the agent on day 2 [1, 5]	Death of leukocytes in the presence of 1 mM of compound (human leukocytes; 3 h incubation) [%]	toxic effect on human blood leukocytes (in words) (human leukocytes)	Death of leukocytes in the presence of 1 mM of compound (human leukocytes; 3 h incubation, listed as hemin) [%]	concentration at which a weak toxic effect on leukocytes appears (human leukocytes; 3 h incubation) [µM]
C=CC1=C(C)c2cc3[n-]c(cc4nc(cc5[n-]c(cc1n2)c(C)c5CCC(=O)N[C@@H](CCC(=O)N[C@@H](CCCNC(=N)N)C(=O)OC)C(=O)N[C@@H](CCCNC(=N)N)C(=O)OC)C(CCC(=O)N[C@@H](CCC(=O)N[C@@H](CCCNC(=N)N)C(=O)OC)C(=O)N[C@@H](CCCNC(=N)N)C(=O)OC)=C4C)c(C)c3C=C.[Cl-].[Fe+3] [Compound XVIII, 6,7-bis[bis(N^α-L-Arginyl Methyl Ester)-L-Glutamyl]-Protohemin IX]	−	−	−	−	+	+	+	+				
C=CC1=C(C)c2cc3[n-]c(cc4nc(cc5[n-]c(cc1n2)c(C)c5CCC(=O)N[C@@H](CCCNC(=N)N)C(=O)OC)C(CCC(=O)N[C@@H](CCCNC(=N)N)C(=O)OC)=C4C)c(C)c3C=C.[Cl-].[Fe+3] [VII]	−	±	+	+	+	+	+	+	8.0 ± 0.8	did not cause the death		
C=CC1=C(C)c2cc3[n-]c(cc4[n-]c(cc5nc(cc1n2)C(C)=C5C=C)c(C)c4CCC(=O)O)c(CCC(=O)O)c3C.[Cl-].[Fe+3] [Hem, hemin]	±	±	±	±	±	±	+	+	40 ± 2		40	
C=CC1=C(C)c2cc3[n-]c(cc4nc(cc5[n-]c(cc1n2)c(C)c5CCC(=O)N[C@@H](CO)C(=O)OC)C(CCC(=O)N[C@@H](CO)C(=O)OC)=C4C)c(C)c3C=C.[Cl-].[Fe+3] [VIII]	±	±	±	+	+	+	+	+	6.1 ± 0.3	did not cause the death		
C=CC1=C(C)c2cc3[n-]c(cc4nc(cc5[n-]c(cc1n2)c(C)c5CCC(=O)NCCO)C(CCC(=O)NCCO)=C4C)c(C)c3C=C.[Cl-].[Fe+3] [Compound XIV, Protohemin IX 6,7-bis-N-(2-Hydroxyethyl)amide]									17.5 ± 0.7			~1000
